# Source: patent US8748426B2, “Inhibitors of diacylglycerol acyl transferase” (Piramal Enterprises Limited, priority 2009, dated 2014)
# Target: T1, hDGAT1 (Homo sapiens, UniProt O75907)
# T1 sequence (O75907 1-488): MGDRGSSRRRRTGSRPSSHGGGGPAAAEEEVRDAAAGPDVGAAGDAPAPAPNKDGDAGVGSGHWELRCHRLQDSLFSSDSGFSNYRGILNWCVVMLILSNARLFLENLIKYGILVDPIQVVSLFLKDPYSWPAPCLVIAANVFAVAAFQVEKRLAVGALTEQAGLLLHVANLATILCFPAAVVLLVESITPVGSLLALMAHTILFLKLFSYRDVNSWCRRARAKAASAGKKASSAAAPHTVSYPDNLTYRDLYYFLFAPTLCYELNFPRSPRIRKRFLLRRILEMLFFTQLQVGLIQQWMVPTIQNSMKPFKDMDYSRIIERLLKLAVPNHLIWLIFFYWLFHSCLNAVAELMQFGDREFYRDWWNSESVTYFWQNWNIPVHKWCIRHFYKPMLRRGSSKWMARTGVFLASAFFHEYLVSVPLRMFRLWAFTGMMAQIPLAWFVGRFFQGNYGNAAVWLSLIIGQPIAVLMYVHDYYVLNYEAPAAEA
# Experiment: In-vitro DGAT1 assay (14C oleoyl CoA, hDGAT1 microsomes from Sf9 cells)
# Conditions: at 1 μM
row,SMILES,% Inhibition of hDGAT1
1,"CC(C)[C@@H](C(=O)O)N1Cc2ccc(-c3ccc(NC(=O)c4ccc(-c5ccccc5)cc4)c(F)c3)cc2C1=O [Example 448, (S)-2-(6-(4-Biphenyl-4-ylcarboxamido-3-fluorophenyl)-1-oxoisoindolin-2-yl)-3-methylbutanoic acid]",++ (>50% Inhibition)
2,"CC(C)(C(=O)O)N1Cc2ccc(-c3ccc(NC(=O)c4ccc(-c5ccccc5)cc4)cc3)cc2C1=O [Example 517, 2-(6-(4-([1,1′-Biphenyl]-4-ylcarboxamido)phenyl)-1-oxoisoindolin-2-yl)-2-methyl propanoic acid]",++ (>50% Inhibition)
3,"CC(C)[C@@H](C(=O)O)N1Cc2ccc(-c3ccc(NC(=O)c4ccc(-c5ccccc5)cc4)cc3Cl)cc2C1=O [Example 482, (S)-2-(6-(4-Biphenyl-4-ylcarboxamido-2-chlorophenyl)-1-oxoisoindolin-2-yl)-3-methylbutanoic acid]",++ (>50% Inhibition)
4,"O=C(Nc1ccc(-c2ccc3c(c2)C(=O)N([C@@H]2CCC[C@@H]2C(=O)O)C3)cc1)c1ccc(-c2ccccc2)cc1 [Example 594, (1S,2R)-2-(6-(4-([1,1′-Biphenyl]-4-ylcarboxamido)phenyl)-1-oxoisoindolin-2-yl)cyclopentanecarboxylic acid]",++ (>50% Inhibition)

# Same assay, conditions: read-out: % Inhibition of hDGAT1
row,SMILES,inhibition at 1 µM [%]
1,"CC(C)[C@@H](C(=O)O)N1Cc2ccc(-c3ccc(NC(=O)c4ccc(C(F)(F)F)c(F)c4)cc3)cc2C1=O [Example 196, (S)-2-(6-(4-(3-Fluoro-4-(trifluoromethyl)benzamido)phenyl)-1-oxoisoindolin-2-yl)-3-methylbutanoic acid]",> 50
2,"COc1ccccc1NC(=S)Nc1ccc(-c2ccc3c(c2)CN([C@H](C(=O)O)C(C)C)C3=O)cc1 [Example 281, (S)-2-(5-(4-(3-(2-Methoxyphenyl)thioureido)phenyl)-1-oxoisoindolin-2-yl)-3-methylbutanoic acid]",> 50
3,"CC(C)[C@@H](C(=O)O)N1Cc2ccc(-c3ccc(NC(=O)Nc4ccccc4Cl)c(F)c3)cc2C1=O [Example 442, (S)-2-(6-(4-(3-(2-Chlorophenyl)ureido)-3-fluorophenyl)-1-oxoisoindolin-2-yl)-3-methylbutanoic acid]",> 50
4,"CC(C)[C@@H](C(=O)O)N1Cc2ccc(-c3ccc(NS(=O)(=O)c4ccc(F)c(F)c4)cc3)cc2C1=O [Example 82, (S)-2-(6-(4-(3,4-Difluorophenylsulfonamido)phenyl)-1-oxoisoindolin-2-yl)-3-methylbutanoic acid]",10 to 50
5,"CC(C)[C@@H](C(=O)O)N1Cc2ccc(-c3ccc(NC(=O)c4ccc(F)cc4)cc3)cc2C1=O [Example 100, (S)-2-(6-(4-(4-Fluorobenzamido)phenyl)-1-oxoisoindolin-2-yl)-3-methylbutanoic acid]",> 50
6,"C[C@@H](C(=O)O)N1Cc2ccc(-c3ccc(NC(=O)Nc4cccc(C(F)(F)F)c4)cc3)cc2C1=O [Example 337, (S)-2-(1-Oxo-6-(4-(3-(3-(trifluoromethyl)phenyl)ureido)phenyl)isoindolin-2-yl)propanoic acid]",> 50
7,"CC(C)[C@@H](C(=O)O)N1Cc2ccc(-c3ccc(NC(=O)c4ccc(C(C)(C)C)cc4)c(F)c3)cc2C1=O [Example 444, (S)-2-(6-(4-(4-tert-Butylbenzamido)-3-fluorophenyl)-1-oxoisoindolin-2-yl)-3-methylbutanoic acid]",> 50
8,"CC(C)[C@@H](C(=O)O)N1Cc2ccc(-c3cnc(NC(=O)c4ccc(C(C)(C)C)cc4)cn3)cc2C1=O [Example 505, (S)-2-(6-(5-(4-tert-Butylbenzamido)pyrazin-2-yl)-1-oxoisoindolin-2-yl)-3-methylbutanoic acid]",10 to 50
9,"CC(C)[C@@H](C(=O)O)N1Cc2ccc(-c3ccc(NC(=O)Nc4ccc5c(c4)CCC5)cn3)cc2C1=O [Example 402, (S)-2-(6-(5-(3-(2,3-Dihydro-1H-inden-5-yl)ureido)pyridin-2-yl)-1-oxoisoindolin-2-yl)-3-methylbutanoic acid]",> 50
